This note sets out measurements from patent US8143296B2, “Thiazole-based compound and inhibitor of T-type calcium channel containing the same” (Korea Institute of Science and Technology, priority 2006, dated 2012).

In general, inhibition refers to the share of the control response that was lost under treatment. Broadly, the melting point is the temperature, or range, at which the solid turns liquid.

The target of data set [1] is T1, α1G T-type calcium channel (Homo sapiens, UniProt O43497).
T1 construct: host or cells: HEK293
Nature of the data set: Assay for % inhibiting activity against T-type calcium channel using FDSS6000. It is filed as cell-based. Conditions: HEK293 cells expressing α1G; for inhibition at 10 µM: HEK293, 10 μM. As to the method:
In the present invention, in order to search an efficient inhibitor against T-type calcium channel, a primary assay for T-type calcium channel inhibiting activity was conducted by a high-efficient assay using FDSS6000, wherein mammal HEK293 cell lines (originated from human kidney carcinoma cells) which specifically expresses α1G of T-type calcium channel was used for primary assay. Through the primary assay, compounds which show meaningful inhibition effects were selected. The selected compounds were used in a second assay for T-type calcium channel inhibiting activity using electrophysiological whole cell patch clamp method, wherein mammal HEK293 cell lines (originated from human kidney carcinoma cells) which specifically expresses α1G of T-type calcium channel was used for the second assay.
At 12-24 hours before being used for this assay, cells of HEK293 cell line (α1G cell line: KCTC 10519BP, Korean Collection for Type Cultures), which stably express α1G T-type calcium channel and Kir2.1, were sub-cultured in a poly-L-lysine treated 96-well plate with the density of 4×10^4 per a well using a 96-well cell dispenser (Titertek). On the of assay, the 96-well plate to which the cells were attached were washed three times with HEPES buffer solution (150 mM of NaCl, 5 mM of KCl, 1 mM of MgCl2, 2 mM of CaCl2, 10 mM of HEPES, 10 mM of glucose; pH 7.4) using a 96-well plate automatic washing device (Bio Tek), then reacted with HEPES buffer solution containing 5 μM fluo-3/AM and 0.001% Pluronic F-127 under room temperature for 1 hour, to label with fluorescent dye, and then further washed two times with HEPES buffer solution.
Thereafter, at 10 minutes before the measurement using device FDSS6000, a washing with HEPES buffer solution containing 10 mM CaCl2 was conducted once more, and the final volume was adjusted to 81 μl. Besides the above 96-well plate containing the cells, additional two drug 96-well plates were provided, wherein the 96-well plates contain inhibiting drug and KCl (final concentration: 75 mM) for activating T-type calcium channel, respectively. Since most of cell-based HTS devices are equipped with a liquid application system for injection of drug, but have no liquid sucking system, the inhibiting drug to be tested and KCl were respectively provided at the five-times higher concentration in 10 mM CaCl2 HEPES buffer solution at the amount of 27 μl, diluted five-times at the final cell plate volume of 135 μl, and then used in this test. The concrete method of measurement using FDSS6000 was as follows: After recording the reference value of 20 seconds, the change of intracellular Ca^2+ concentration which induced by treatment of the inhibiting drug to be tested for 75 seconds followed by administration of KCl was measured, wherein the percentage (%) inhibition effect of the test drug, through estimating the area of ratio value of 340/380 in the control without treatment of the test drug as 100%. As a reference drug, mibefradil was used.
For accurate calcium-imagination, the light source of 4 xenon lamps in FDSS6000 were radiated to make the cells exposed selectively to the excitation wavelength (340 nm and 380 nm) by computer-controlled filter wheel. Data was obtained at interval of each 1.23 second. The emitter fluorescence light inflowed through long-pass filter was obtained as an average 340/380 ratio value for each well in the 96-wells by using CCD camera and digital fluorescence analyzer in FDSS6000. All image data and analyses were obtained by using FDSS6000-exclusive program provide from Hamamatsu Photonics.

[2] abbreviates: Table 3 (Chemical Formula 2 series).
Setting [3] is: Table 4 (Chemical Formula 3 series).

T1 sequence (O43497 whole entry): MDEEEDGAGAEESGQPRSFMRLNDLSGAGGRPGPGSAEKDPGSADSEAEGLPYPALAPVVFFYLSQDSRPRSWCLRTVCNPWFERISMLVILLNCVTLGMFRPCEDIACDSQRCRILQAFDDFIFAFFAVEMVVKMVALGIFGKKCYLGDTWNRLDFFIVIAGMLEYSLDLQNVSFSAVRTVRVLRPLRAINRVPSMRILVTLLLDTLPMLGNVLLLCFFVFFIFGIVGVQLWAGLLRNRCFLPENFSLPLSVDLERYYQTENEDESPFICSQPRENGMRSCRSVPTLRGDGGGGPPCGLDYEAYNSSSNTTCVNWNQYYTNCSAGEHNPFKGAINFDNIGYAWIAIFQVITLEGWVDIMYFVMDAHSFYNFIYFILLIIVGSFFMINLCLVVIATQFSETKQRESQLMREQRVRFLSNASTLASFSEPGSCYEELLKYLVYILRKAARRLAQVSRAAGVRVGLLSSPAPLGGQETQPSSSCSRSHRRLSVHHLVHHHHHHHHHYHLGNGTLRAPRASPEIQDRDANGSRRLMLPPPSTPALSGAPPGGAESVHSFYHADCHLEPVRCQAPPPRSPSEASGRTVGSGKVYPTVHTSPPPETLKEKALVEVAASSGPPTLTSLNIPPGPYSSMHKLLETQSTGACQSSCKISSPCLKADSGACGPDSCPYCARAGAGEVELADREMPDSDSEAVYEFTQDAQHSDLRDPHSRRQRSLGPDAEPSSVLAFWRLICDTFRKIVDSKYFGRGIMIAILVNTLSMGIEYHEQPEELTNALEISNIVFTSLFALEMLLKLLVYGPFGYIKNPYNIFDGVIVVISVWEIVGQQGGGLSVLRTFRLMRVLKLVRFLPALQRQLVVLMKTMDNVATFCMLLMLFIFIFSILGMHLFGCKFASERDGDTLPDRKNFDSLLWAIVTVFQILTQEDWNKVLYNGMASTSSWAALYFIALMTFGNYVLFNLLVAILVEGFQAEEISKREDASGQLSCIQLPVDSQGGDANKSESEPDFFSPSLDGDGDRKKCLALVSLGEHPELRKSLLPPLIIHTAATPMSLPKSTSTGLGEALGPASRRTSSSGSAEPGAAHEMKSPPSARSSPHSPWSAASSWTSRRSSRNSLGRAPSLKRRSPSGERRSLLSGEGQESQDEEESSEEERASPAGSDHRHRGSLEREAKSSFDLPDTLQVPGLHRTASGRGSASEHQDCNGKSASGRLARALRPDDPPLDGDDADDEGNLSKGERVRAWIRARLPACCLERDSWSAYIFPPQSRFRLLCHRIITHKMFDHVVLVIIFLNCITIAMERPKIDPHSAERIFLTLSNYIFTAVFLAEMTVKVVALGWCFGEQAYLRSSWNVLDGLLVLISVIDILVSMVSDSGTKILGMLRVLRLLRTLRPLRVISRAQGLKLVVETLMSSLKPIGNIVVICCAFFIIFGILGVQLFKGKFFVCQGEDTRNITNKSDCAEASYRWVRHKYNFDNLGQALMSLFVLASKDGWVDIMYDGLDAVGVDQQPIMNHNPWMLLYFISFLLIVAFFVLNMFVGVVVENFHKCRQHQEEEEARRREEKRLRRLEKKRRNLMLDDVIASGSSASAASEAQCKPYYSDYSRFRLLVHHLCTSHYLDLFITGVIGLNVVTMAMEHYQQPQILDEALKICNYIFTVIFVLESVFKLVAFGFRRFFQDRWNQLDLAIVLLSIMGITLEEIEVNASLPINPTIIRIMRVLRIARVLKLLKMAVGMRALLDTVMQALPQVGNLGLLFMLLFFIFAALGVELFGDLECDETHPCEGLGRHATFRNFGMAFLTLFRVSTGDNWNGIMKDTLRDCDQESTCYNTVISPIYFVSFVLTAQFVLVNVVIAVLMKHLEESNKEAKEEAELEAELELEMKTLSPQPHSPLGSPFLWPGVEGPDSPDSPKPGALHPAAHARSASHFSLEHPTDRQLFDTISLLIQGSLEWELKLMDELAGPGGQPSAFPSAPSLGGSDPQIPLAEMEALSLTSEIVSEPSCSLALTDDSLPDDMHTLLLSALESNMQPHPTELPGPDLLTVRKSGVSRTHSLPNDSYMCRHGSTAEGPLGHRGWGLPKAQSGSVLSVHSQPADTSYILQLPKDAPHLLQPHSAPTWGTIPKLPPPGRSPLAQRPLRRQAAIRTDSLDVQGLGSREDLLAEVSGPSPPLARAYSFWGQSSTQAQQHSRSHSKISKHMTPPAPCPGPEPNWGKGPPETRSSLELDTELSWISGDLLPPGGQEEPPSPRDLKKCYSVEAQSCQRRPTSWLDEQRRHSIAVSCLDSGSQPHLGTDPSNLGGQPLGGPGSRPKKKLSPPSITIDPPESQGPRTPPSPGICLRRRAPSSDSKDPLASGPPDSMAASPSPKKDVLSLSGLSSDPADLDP

In the case of `Cl.NC(N)=Nc1nc(CC(=O)Nc2ccc(F)cc2)cs1` [KHG23171, 2-(2-(diaminomethyleneamino)thiazole-4-yl)-N-(4-fluorophenyl)acetamide hydrochloride], the melting point lay within 207.3 to 208.2 °C. In data set [1] (setting [2]), the inhibition at 10 µM was 21.5%.

Take `Cl.NC(N)=Nc1nc(CC(=O)Nc2cc(Cl)ccc2F)cs1` [KHG23172, N-(5-chloro-2-fluorophenyl)-2-(2-(diaminomethyleneamino)thiazole-4-yl)acetamide hydrochloride]: the melting point fell in the range of 209.3 to 210 °C. In data set [1] (setting [2]), the inhibition at 10 µM is 27.6%.

As for `Cl.NC(N)=Nc1nc(CC(=O)Nc2ccc(Cl)cc2F)cs1` [KHG23173, N-(4-chloro-2-fluorophenyl)-2-(2-(diaminomethyleneamino)thiazole-4-yl)acetamide hydrochloride], the melting point was in the range of 237.2 to 239.8 °C. The inhibition at 10 µM in data set [1] (setting [2]) worked out at 28.1%.

The molecule `Cc1ccc(NC(=O)Cc2csc(N=C(N)N)n2)c(Cl)c1.Cl` [KHG23174, N-(2-chloro-4-methylphenyl)-2-(2-(diaminomethyleneamino)thiazole-4-yl)acetamide hydrochloride] displayed a melting point of 218.6 to 220 °C. In data set [1] (setting [2]), the inhibition at 10 µM was determined as 18.8%.

`Cc1ccc(NC(=O)Cc2csc(N=C(N)N)n2)cc1.Cl` [KHG23175, 2-(2-(diaminomethyleneamino)thiazole-4-yl)-N-p-tolylacetamide hydrochloride] had a melting point of 236.2 to 238.3 °C. In addition, the inhibition at 10 µM in data set [1] (setting [2]) amounted to 23.8%.

Regarding `Cl.N#Cc1ccc(NC(=O)Cc2csc(N=C(N)N)n2)cc1` [KHG23176, N-(4-cyanophenyl)-2-(2-(diaminomethyleneamino)thiazole-4-yl)acetamide hydrochloride], the melting point fell in the range of 218.4 to 219.4 °C. Also, the inhibition at 10 µM in data set [1] (setting [2]) came to 20.5%.

`Cl.NC(N)=Nc1nc(CC(=O)Nc2ccccc2)cs1` [KHG23177, 2-(2-(diaminomethyleneamino)thiazole-4-yl)-N-phenylacetamide hydrochloride] yielded a melting point of 197.8 to 198.1 °C. In data set [1] (setting [2]), the inhibition at 10 µM worked out at 23.3%.

With `Cl.NC(N)=Nc1nc(CC(=O)Nc2ccc(Br)cc2)cs1` [KHG23178, N-(4-bromophenyl)-2-(2-(diaminomethyleneamino)thiazole-4-yl)acetamide hydrochloride], the melting point was 246.4 to 247 °C. Besides, in data set [1] (setting [2]), the inhibition at 10 µM came to 34.5%.

Molecule `COc1ccc(NC(=O)Cc2csc(N=C(N)N)n2)cc1F.Cl` [KHG23179, 2-(2-(diaminomethyleneamino)thiazole-4-yl)-N-(3-fluoro-4-methoxyphenyl)acetamide hydrochloride] returned a melting point of 225.8 to 228.4 °C. Further, the “% Inhibition [α1G, 10 μM) using FDSS6000” value in data set [1] (10 μM, Table 3 (Chemical Formula 2 series), hydrochloride) is reported as 30.76%.

For `Cl.NC(N)=Nc1nc(CC(=O)Nc2ccc(Cl)cc2)cs1` [KHG23184, N-(4-chlorophenyl)-2-(2-(diaminomethyleneamino)thiazole-4-yl)acetamide hydrochloride], the melting point was in the range of 244.3 to 245 °C. In addition, the inhibition at 10 µM in data set [1] (setting [2]) was found to be 24.9%.

As to `Cl.NC(N)=Nc1nc(CC(=O)Nc2cc(Cl)cc(Cl)c2)cs1` [KHG23185, 2-(2-(diaminomethyleneamino)thiazole-4-yl)-N-(3,5-dichlorophenyl)acetamide hydrochloride], the melting point is 248.5 to 249.2 °C. In addition, the inhibition at 10 µM in data set [1] (setting [2]) was found to be 12.3%.

`CCc1ccc(NC(=O)Cc2csc(N=C(N)N)n2)cc1.Cl` [KHG23186, 2-(2-(diaminomethyleneamino)thiazole-4-yl)-N-(4-ethylphenyl)acetamide hydrochloride]: the melting point is 228 to 229.1 °C. Moreover, the inhibition at 10 µM in data set [1] (setting [2]) was determined as 29.8%.

For the molecule `Cc1ccc(CNC(=O)Cc2csc(N=C(N)N)n2)cc1.Cl` [KHG23187, 2-(2-(diaminomethyleneamino)thiazole-4-yl)-N-(4-methylbenzyl)acetamide hydrochloride], the melting point lay in the range of 187.9 to 188.6 °C. Besides, the inhibition at 10 µM in data set [1] (setting [2]) was 21.4%.

In turn, `Cc1ccc(CCNC(=O)Cc2csc(N=C(N)N)n2)cc1.Cl` [KHG23188, 2-(2-(diaminomethyleneamino)thiazole-4-yl)-N-(4-methylphenethyl)acetamide hydrochloride] gave a melting point of 169.3 to 170.1 °C. Moreover, the inhibition at 10 µM in data set [1] (setting [2]) is 19.3%.

`Cl.NC(N)=Nc1nc(CC(=O)NCc2ccc(F)c(F)c2)cs1` [KHG23189, 2-(2-(diaminomethyleneamino)thiazole-4-yl)-N-(3,4-difluorobenzyl)acetamide hydrochloride] had a melting point of 206.9 to 207.6 °C. For the same molecule, the inhibition at 10 µM in data set [1] (setting [2]) was 19.3%.

The molecule `Cc1ccc(NC(=O)Cc2csc(N=C(N)N)n2)c(Br)c1.Cl` [KHG23191, N-(2-bromo-4-methylphenyl)-2-(2-(diaminomethyleneamino)thiazole-4-yl)acetamide hydrochloride] showed a melting point of 219.7 to 220.5 °C. Also, the inhibition at 10 µM in data set [1] (setting [2]) was 18%.

On to `CCOc1ccc(NC(=O)Cc2csc(N=C(N)N)n2)cc1.Cl` [KHG23192, N-(4-ethoxyphenyl)-2-(2-(diaminomethyleneamino)thiazole-4-yl)acetamide hydrochloride], for which the melting point is 242.1 to 242.6 °C. The inhibition at 10 µM in data set [1] (setting [2]) was determined as 16.8%.

The molecule `Cl.NC(N)=Nc1nc(-c2ccc(Cl)cc2)cs1` [KHG24024, 2-(4-(4-chlorophenyl)thiazole-2-yl)guanidine hydrochloride] displayed a melting point of 264.9 °C. Further, the inhibition at 10 µM in data set [1] (setting [3]) amounted to 13%.

Molecule `Cl.NC(N)=Nc1nc(-c2ccc(F)cc2)cs1` [KHG24025, 2-(4-(4-fluorophenyl)thiazole-2-yl)guanidine hydrochloride] returned a melting point of 223.3 °C. Besides, the inhibition at 10 µM in data set [1] (setting [3]) amounted to 19.9%.

`Cl.NC(N)=Nc1nc(-c2ccc(F)cc2F)cs1` [KHG24026, 2-(4-(2,4-difluorophenyl)thiazole-2-yl)guanidine hydrochloride] gave a melting point of 248.9 °C. Besides, the inhibition at 10 µM in data set [1] (setting [3]) was 19.8%.

In turn, `Cl.NC(N)=Nc1nc(-c2ccc3c(c2)OCC(=O)N3)cs1` [KHG24037, 2-(4-(3-oxo-3,4-dihydro-2H-benzo[b][1,4]oxazine-7-yl)thiazole-2-yl)guanidine hydrochloride] came in with a melting point of 233.3 °C. The inhibition at 10 µM in data set [1] (setting [3]) is 21.2%.

`Cl.NC(N)=Nc1nc(-c2ccc(-c3ccccc3)cc2)cs1` [KHG24038, 2-(4-(biphenyl-4-yl)thiazole-2-yl)guanidine hydrochloride] returned a melting point of 300.3 °C. In addition, in data set [1] (setting [3]), the inhibition at 10 µM was 14.2%.

For `Br.NC(N)=Nc1nc(-c2ccccc2Cl)cs1` [KHG24373, 2-(4-(2-chlorophenyl)thiazole-2-yl)guanidine hydrobromide], the melting point worked out at 211.9 °C. The inhibition at 10 µM in data set [1] (setting [3]) is 21.7%.

`Br.COc1ccccc1-c1csc(N=C(N)N)n1` [KHG24374, 2-(4-(2-methoxyphenyl)thiazole-2-yl)guanidine hydrobromide] displayed a melting point of 245.4 °C. Also, the inhibition at 10 µM in data set [1] (setting [3]) was 20.7%.

For `Br.COc1ccc(-c2csc(N=C(N)N)n2)c(OC)c1` [KHG24376, 2-(4-(2,4-dimethoxyphenyl)thiazole-2-yl)guanidine hydrobromide], the melting point turned out to be 213 °C. In data set [1] (setting [3]), the inhibition at 10 µM amounted to 16.1%.

Molecule `Br.COc1ccc(-c2csc(N=C(N)N)n2)c(F)c1` [KHG24377, 2-(4-(2-fluoro-4-methoxyphenyl)thiazole-2-yl)guanidine hydrobromide] registered a melting point of 202.6 °C. In addition, the inhibition at 10 µM in data set [1] (setting [3]) was 20.2%.

Regarding `Br.NC(N)=Nc1nc(-c2ccc(Cl)cc2Cl)cs1` [KHG24379, 2-(4-(2,4-dichlorophenyl)thiazole-2-yl)guanidine hydrobromide], the melting point worked out at 173 °C. The inhibition at 10 µM in data set [1] (setting [3]) turned out to be 16.8%.
